Laboratory results taken from US20120101086A1, “THIADIAZOLE DERIVATIVES AND THEIR USE FOR THE TREATMENT OF DISORDERS MEDIATED BY S1P1 RECEPTORS” (GLAXO GROUP LIMITED, priority 2009, published 2012).
Where a name gives a salt, the structure may show the parent alone.

Tests used:
S1P1 [1] = target: T1, S1P1 (Homo sapiens, UniProt P21453); assay: S1P-1 β-Arrestin recruitment assay; assay type: cell-based; parameters: host or cells: PathHunter CHO-K1 EDG1 β-Arrestin cell line; conditions: PathHunter CHO-K1 EDG1 β-Arrestin cell line, chemi-luminescence
Protocol: β-Arrestin recruitment assays were carried out using the PathHunter CHO-K1 EDG1 β-Arrestin cell line (DiscoveRx Corporation) in a chemi-luminescence detection assay. This cell line stably expresses β-Arrestin 2 and S1P1 fused to complementing portions of β-galactosidase (‘EA’ and ‘pro-link’, respectively) which associate upon Arrestin recruitment to form functional β-galactosidase enzyme.
Cells were grown to 80% confluency in Growth Medium (F12 nutrient HAMS supplemented with 10% heat-inactivated USA FBS, 1% L-glutamax, 800 m/ml Geneticin and 300 m/ml Hygromycin). Cells were harvested from the flask using Enzyme Free Cell Dissociation Buffer (Gibco) and washed from flasks with Optimem solution (Gibco). Cells were then centrifuged at 1000 rpm for 2-3 min and resuspended in Assay Buffer (Prepared from Sigma kit H1387 supplemented with 20 ml/L HEPES, 4.7 ml/L NaHCO3, 0.1% pluronic acid F-68 solution, 0.1% BSA and adjusted to pH 7.4 using sodium hydroxide at 1×10^6 cells/ml. Cells were dispensed into assay plates containing compounds (100n1/well of a solution of test compound in 100% DMSO) at 1×10^4 cells/well and incubated at 37° C./5% CO2 for 90 min followed by 15 min at room temperature. 5 μl detection mix (1 part Galacton Star, 5 parts Emerald II, 19 parts Assay Buffer; DiscoveRx) were added per well and the plates incubated at room temperature for 60 min. Luminescence was quantified using a Viewlux plate reader.

S1P1 [2] = target: T1, S1P1; assay: S1P1 GTPγS assay; assay type: biochemical; parameters: expressed in transfected cells; host or cells: RH7777 cells (membranes); conditions: tested in one of the above S1P1 assays (two protocols)
Protocol: The potencies and efficacies of the compounds of this invention for the S1P1 receptor can be determined by GTPγS assay performed on the human cloned receptor as described herein. […] All steps were performed at 4° C. Cells were homogenised within a glass Waring blender for 2 bursts of 15 secs in 200 mls of buffer (50 mM HEPES, 1 mM leupeptin, 25 m/ml bacitracin, 1 mM EDTA, 1 mM PMSF, 2 μM pepstatin A). The blender was plunged into ice for 5 mins after the first burst and 10-40 mins after the final burst to allow foam to dissipate. The material was then spun at 500 g for 20 mins and the supernatant spun for 36 mins at 48,000 g. The pellet was resuspended in the same buffer as above but without PMSF and pepstatin A. The material was then forced through a 0.6 mm needle, made up to the required volume, (usually ×4 the volume of the original cell pellet), aliquoted and stored frozen at—80° C. S1P1 expressing RH7777 membranes (1.5 μg/well) membranes (1.5 μg/well) were homogenised by passing through a 23G needle. These were then adhered to WGA-coated SPA beads (0.125 mg/well) in assay buffer (HEPES 20 mM, MgCl2, 10 mM, NaCl 100 mM and pH adjusted to 7.4 using KOH 5M). GDP 10 μM FAC and saponin 90 μg/ml FAC were also added After 30 minutes precoupling on ice, the bead and membrane suspension was dispensed into white Greiner polypropylene LV 384-well plates (5 μl/well), containing 0.1 μl of compound. 5 μl/well [^35S]-GTPγS (0.5 nM for S1P1 or 0.3 nM for S1P3 final radioligand concentration) made in assay buffer was then added to the plates. The final assay cocktail (10.1 μl) was then sealed, spun on a centrifuge, then read immediately on a Viewlux instrument. Alternatively, after 30 minutes precoupling on ice, the bead and membrane suspension was mixed with ^35S]-GTPγS (0.5 nM final radioligand concentration) in assay buffer (HEPES 20 mM, MgCl2 10 mM, NaCl 100 mM and pH adjusted to 7.4 using KOH 5M) in a 1:1 ratio. The bead, membrane and radioligand suspension was dispensed into white Greiner polypropylene low volume 384-well plates (10 μl/well), containing 0.1 μl of a solution of test compound in 100% DMSO. The final assay cocktail (10.1 μl) was then sealed, spun on a centrifuge, then read immediately on a Viewlux instrument.

[3] = clinical studies, first 24 hours of treatment; cited from earlier work
circulating lymphocytes = conditions: animals and man; cited from earlier work

T1 sequence (P21453 whole entry, the tested form may be a part): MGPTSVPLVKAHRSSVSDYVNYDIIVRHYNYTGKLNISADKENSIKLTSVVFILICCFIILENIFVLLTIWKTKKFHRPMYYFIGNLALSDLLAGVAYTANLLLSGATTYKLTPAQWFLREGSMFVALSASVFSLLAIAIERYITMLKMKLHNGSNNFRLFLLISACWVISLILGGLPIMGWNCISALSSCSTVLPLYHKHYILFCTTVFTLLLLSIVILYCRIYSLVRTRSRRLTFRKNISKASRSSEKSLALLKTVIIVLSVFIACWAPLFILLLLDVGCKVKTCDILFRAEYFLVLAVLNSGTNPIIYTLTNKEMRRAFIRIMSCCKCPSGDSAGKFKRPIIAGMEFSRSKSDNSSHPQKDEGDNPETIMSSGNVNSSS

| SMILES | EC50 (S1P1 [1]) | also measured |
| --- | --- | --- |
| Cc1c2c(nn1-c1nnc(-c3ccc(OC(C)C)c(C#N)c3)s1)CCNC2 [Example 3, 2-[(1-Methylethyl)oxy]-5-[5-(3-methyl-4,5,6,7-tetrahydro-2H-pyrazolo[4,3-c]pyridin-2-yl)-1,3,4-thiadiazol-2-yl]benzonitrile] | ≤ 0.1 µM | – |
| CC(C)Oc1ccc(-c2nnc(-n3cc4c(n3)CCN(CCCC(=O)O)C4)s2)cc1Cl [Example 7, 4-[2-(5-{3-Chloro-4-[(1-methylethyl)oxy]phenyl}-1,3,4-thiadiazol-2-yl)-2,4,6,7-tetrahydro-5H-pyrazolo[4,3-c]pyridin-5-yl]butanoic acid] | ≤ 0.01 µM | EC50 (S1P1 [2]): ≤ 0.1 µM |
| CC(C)Oc1ccc(-c2nnc(-n3cc4c(n3)CCN(CCC(=O)O)C4)s2)cc1C#N [Example 12, 3-[2-(5-{3-Cyano-4-[(1-methylethyl)oxy]phenyl}-1,3,4-thiadiazol-2-yl)-2,4,6,7-tetrahydro-5H-pyrazolo[4,3-c]pyridin-5-yl]propanoic acid] | ≤ 0.01 µM | EC50 (S1P1 [2]): ≤ 0.1 µM |
| CC(C)Oc1ccc(-c2nnc(-n3cc4c(n3)CCN(CCCC(=O)O)C4)s2)cc1C#N [Example 13, 4-[2-(5-{3-Cyano-4-[(1-methylethyl)oxy]phenyl}-1,3,4-thiadiazol-2-yl)-2,4,6,7-tetrahydro-5H-pyrazolo[4,3-c]pyridin-5-yl]butanoic acid] | ≤ 0.01 µM | – |
| Cc1c2c(nn1-c1nnc(-c3ccc(OC(C)C)c(C#N)c3)s1)CCN(C(CO)CO)C2 [Example 25, 5-(5-{5-[2-hydroxy-1-(hydroxymethyl)ethyl]-3-methyl-4,5,6,7-tetrahydro-2H-pyrazolo[4,3-c]pyridin-2-yl}-1,3,4-thiadiazol-2-yl)-2-[(1-methylethyl)oxy]benzonitrile] | ≤ 0.01 µM | – |
| Cc1c2c(nn1-c1nnc(-c3ccc(OC(C)C)c(C#N)c3)s1)CCN(C[C@H](O)CO)C2 [Example 26, 5-(5-{5-[(2S)-2,3-dihydroxypropyl]-3-methyl-4,5,6,7-tetrahydro-2H-pyrazolo[4,3-c]pyridin-2-yl}-1,3,4-thiadiazol-2-yl)-2-[(1-methylethyl)oxy]benzonitrile] | ≤ 0.01 µM | – |
| Cc1c2c(nn1-c1nnc(-c3ccc(OC(C)C)c(C#N)c3)s1)CCN(C(=O)CN[C@H](C)CO)C2 [Example 30, 5-[5-(5-{N—[(1R)-2-hydroxy-1-methylethyl]glycyl}-3-methyl-4,5,6,7-tetrahydro-2H-pyrazolo[4,3-c]pyridin-2-yl)-1,3,4-thiadiazol-2-yl]-2-[(1-methylethyl)oxy]benzonitrile] | ≤ 0.01 µM | – |
| Cc1c2c(nn1-c1nnc(-c3ccc(OC(C)C)c(C#N)c3)s1)CCN(C(=O)CNC[C@H](C)O)C2 [Example 33, 5-[5-(5-{N-[(2S)-2-hydroxypropyl]glycyl}-3-methyl-4,5,6,7-tetrahydro-2H-pyrazolo[4,3-c]pyridin-2-yl)-1,3,4-thiadiazol-2-yl]-2-[(1-methylethyl)oxy]benzonitrile] | ≤ 0.1 µM | – |
| Cc1c2c(nn1-c1nnc(-c3ccc(OC(C)C)c(C#N)c3)s1)CCN(C(=O)CNC[C@H](O)CO)C2 [Example 34, 5-[5-(5-{N-[(2S)-2,3-dihydroxypropyl]glycyl}-3-methyl-4,5,6,7-tetrahydro-2H-pyrazolo[4,3-c]pyridin-2-yl)-1,3,4-thiadiazol-2-yl]-2-[(1-methylethyl)oxy]benzonitrile] | ≤ 0.01 µM | – |
| Cc1c2c(nn1-c1nnc(-c3ccc(OC(C)C)c(C#N)c3)s1)CCN(C(=O)CNCCO)C2 [Example 35, 5-(5-{5-[N-(2-hydroxyethyl)glycyl]-3-methyl-4,5,6,7-tetrahydro-2H-pyrazolo[4,3-c]pyridin-2-yl}-1,3,4-thiadiazol-2-yl)-2-[(1-methylethyl)oxy]benzonitrile] | ≤ 0.01 µM | – |
| Cc1c2c(nn1-c1nnc(-c3ccc(OC(C)C)c(C#N)c3)s1)CCN(C(=O)CNC(CO)CO)C2 [Example 36, 5-[5-(5-{N-[2-hydroxy-1-(hydroxymethyl)ethyl]glycyl}-3-methyl-4,5,6,7-tetrahydro-2H-pyrazolo[4,3-c]pyridin-2-yl)-1,3,4-thiadiazol-2-yl]-2-[(1-methylethyl)oxy]benzonitrile] | ≤ 0.01 µM | – |
| CCCCCCCCc1ccc(CCC(N)(CO)CO)cc1 [FTY720] | – | bradycardia [3]: results in bradycardia; effect on circulating lymphocytes (circulating lymphocytes): reduce circulating lymphocytes |

More lines, main results first:

| EC50 (S1P1 [1]) | SMILES | also measured |
| --- | --- | --- |
| ≤ 0.01 µM | Cc1c2c(nn1-c1nnc(-c3ccc(OC(C)C)c(Cl)c3)s1)CCN(CCC(=O)O)C2 [Example 2, 3-[2-(5-{3-Chloro-4-[(1-methylethyl)oxy]phenyl}-1,3,4-thiadiazol-2-yl)-3-methyl-2,4,6,7-tetrahydro-5H-pyrazolo[4,3-c]pyridin-5-yl]propanoic acid] | EC50 (S1P1 [2]): ≤ 0.01 µM |
| ≤ 0.01 µM | Cc1c2c(nn1-c1nnc(-c3ccc(OC(C)C)c(C#N)c3)s1)CCN(CCC(=O)O)C2 [Example 4, 3-[2-(5-{3-Cyano-4-[(1-methylethyl)oxy]phenyl}-1,3,4-thiadiazol-2-yl)-3-methyl-2,4,6,7-tetrahydro-5H-pyrazolo[4,3-c]pyridin-5-yl]propanoic acid trifluoroacetic acid salt] | – |
| ≤ 0.01 µM | Cc1c2c(nn1-c1nnc(-c3ccc(OC(C)C)c(C#N)c3)s1)CCN(CCC(N)=O)C2 [Example 5, 3-[2-(5-{3-Cyano-4-[(1-methylethyl)oxy]phenyl}-1,3,4-thiadiazol-2-yl)-3-methyl-2,4,6,7-tetrahydro-5H-pyrazolo[4,3-c]pyridin-5-yl]propanamide] | – |
| ≤ 0.01 µM | CC(C)Oc1ccc(-c2nnc(-n3cc4c(n3)CCN(CCC(=O)O)C4)s2)cc1Cl [Example 8, 3-[2-(5-{3-Chloro-4-[(1-methylethyl)oxy]phenyl}-1,3,4-thiadiazol-2-yl)-2,4,6,7-tetrahydro-5H-pyrazolo[4,3-c]pyridin-5-yl]propanoic acid] | EC50 (S1P1 [2]): ≤ 0.1 µM |
| ≤ 0.1 µM | CC(C)Oc1ccc(-c2nnc(-n3ncc4c3CCN(CCC(=O)O)C4)s2)cc1Cl [Example 15, 3-[1-(5-{3-Chloro-4-[(1-methylethyl)oxy]phenyl}-1,3,4-thiadiazol-2-yl)-1,4,6,7-tetrahydro-5H-pyrazolo[4,3-c]pyridin-5-yl]propanoic acid] | – |
| ≤ 0.01 µM | COC(=O)[C@H](O)CN1CCc2nn(-c3nnc(-c4ccc(OC(C)C)c(Cl)c4)s3)c(C)c2C1 [Example 41, methyl (2R)-3-[2-(5-{3-chloro-4-[(1-methylethyl)oxy]phenyl}-1,3,4-thiadiazol-2-yl)-3-methyl-2,4,6,7-tetrahydro-5H-pyrazolo[4,3-c]pyridin-5-yl]-2-hydroxypropanoate] | – |
| ≤ 0.1 µM | Cc1c2c(nn1-c1nnc(-c3ccc(OC(C)C)c(Cl)c3)s1)CCN(C[C@H](O)CO)C2 [Example 42, (2S)-3-[2-(5-{3-chloro-4-[(1-methylethyl)oxy]phenyl}-1,3,4-thiadiazol-2-yl)-3-methyl-2,4,6,7-tetrahydro-5H-pyrazolo[4,3-c]pyridin-5-yl]-1,2-propanediol formic acid salt] | – |
